For 14 compounds, IC50 and melting point results are on record in US7943618B2, “Btk protein kinase inhibitors” (Roche Palo Alto LLC, priority 2007, dated 2011).

Each structure is given as a SMILES string. A value given as a limit tells only on which side of the number the result lay.

In series [1] the target is T1, Btk enzyme (His-tagged, full-length) (Homo sapiens, UniProt Q06187).
T1 construct: 5-10 nM Btk enzyme (His-tagged, full-length); His
Put plainly: Bruton's Tyrosine Kinase (Btk) Inhibition Assay (33P filtration capture). As to conditions: Bruton's tyrosine kinase Assay (Example 34), 100 μM ATP. Format: biochemical.

In the next series the test system is Ramos cells. Put plainly: Inhibition of B-cell Activation - B cell FLIPR assay in Ramos cells. Format: cell-based. As to conditions: Homo sapiens, 0.5 h, intracellular calcium increase stimulated by 10 μg/mL anti-IgM, compounds incubated 30 min at RT. An excerpt: Inhibition of B-cell Activation—B cell FLIPR assay in Ramos cells
The B cell FLIPR assay is a cell based functional method of determining the effect of potential inhibitors of the intracellular calcium increase from stimulation by an anti-IgM antibody. Ramos cells (human Burkitt's lymphoma cell line. ATCC-No. CRL-1596) were cultivated in Growth Media (described below). One day prior to assay, Ramos cells were resuspended in fresh growth media (same as above) and set at a concentration of 0.5×10^6/mL in tissue culture flasks. On day of assay, cells are counted and set at a concentration of 1×10^6/mL1 in growth media supplemented with 1 μM FLUO-3AM(TefLabs Cat-No. 0116, prepared in anhydrous DMSO and 10% Pluronic acid) in a tissue culture flask, and incubated at 37° C. (4% CO2) for one h. To remove extracellular dye, cells were collected by centrifugation (5 min, 1000 rpm), resuspended in FLIPR buffer (described below) at 1×10^6 cells/mL and then dispensed into 96-well poly-D-lysine coated black/clear plates (BD Cat-No. 356692) at 1×10^5 cells per well. Test compounds were added at various concentrations ranging from 100 μM to 0.03 μM (7 concentrations, details below), and allowed to incubate with cells for 30 min at RT. Ramos cell Ca^2+ signaling was stimulated by the addition of 10 μg/mL anti-IgM (Southern Biotech, Cat-No. 2020-01) and measured on a FLIPR (Molecular Devices, captures images of 96 well plates using a CCD camera with an argon laser at 480nm excitation).
Growth Medium: RPMI 1640 medium with L-glutamine (Invitrogen, Cat-No. 61870-010), 10% Fetal Bovine Serum (FBS, Summit Biotechnology Cat-No. FP-100-05); 1 mM Sodium Pyruvate (Invitrogen Cat. No. 11360-070).
FLIPR buffer: HBSS (Invitrogen, Cat-No. 141175-079), 2 mM CaCl2 (Sigma Cat-No. C-4901), HEPES (Invitrogen, Cat-No. 15630-080), 2.5mM Probenecid (Sigma, Cat-No. P-8761), 0.1% BSA (Sigma, Cat-No. A-7906), 11 mM Glucose (Sigma, Cat-No. G-7528)
Compound dilution details:
In order to achieve the highest final assay concentration of 100 μM, 24 μL of 10 mM compound stock solution (made in DMSO) is added directly to 576 μL of FLIPR buffer. The test compounds are diluted in FLIPR Buffer (using Biomek 2000 robotic pipettor) resulting in the following dilution scheme: vehicle, 1.00×10^−4 M, 1.00×10^−5, 3.16×10^−6, 1.00×10^−6, 3.16×10^−7, 1.00×10^−7, 3.16×10^−8.
Intracellular increases in calcium were reported using a max-min statistic (subtracting the resting baseline from the peak caused by addition of the stimulatory antibody using a Molecular Devices FLIPR control and statistic exporting software. The IC50 was determined using a non-linear curve fit (GraphPad Prism software). Representative results are in Table III.
For orientation: Calcium assays in cells follow changes in intracellular calcium, usually with a dye or a luminescent sensor.

T1 sequence (Q06187 whole entry): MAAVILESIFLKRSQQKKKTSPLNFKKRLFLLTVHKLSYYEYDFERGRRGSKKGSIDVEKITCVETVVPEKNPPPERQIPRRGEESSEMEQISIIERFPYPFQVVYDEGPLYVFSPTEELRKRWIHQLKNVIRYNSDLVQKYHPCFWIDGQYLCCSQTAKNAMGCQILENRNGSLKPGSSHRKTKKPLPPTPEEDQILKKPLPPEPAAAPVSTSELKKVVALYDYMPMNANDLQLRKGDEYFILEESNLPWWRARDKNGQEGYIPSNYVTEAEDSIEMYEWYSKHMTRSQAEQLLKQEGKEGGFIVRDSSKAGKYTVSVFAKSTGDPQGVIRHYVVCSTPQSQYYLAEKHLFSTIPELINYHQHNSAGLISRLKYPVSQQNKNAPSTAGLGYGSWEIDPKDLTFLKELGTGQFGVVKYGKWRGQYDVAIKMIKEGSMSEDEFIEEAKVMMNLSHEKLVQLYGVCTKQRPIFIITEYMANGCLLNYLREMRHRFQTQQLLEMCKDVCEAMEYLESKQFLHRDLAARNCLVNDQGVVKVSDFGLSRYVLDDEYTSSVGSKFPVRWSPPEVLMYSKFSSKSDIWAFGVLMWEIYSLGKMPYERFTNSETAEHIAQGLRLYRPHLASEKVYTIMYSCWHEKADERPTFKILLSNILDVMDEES

The term IC50 denotes the concentration that inhibits the measured activity by half. Consider `CCNC(=O)Nc1cc(-c2cccc(NC(=O)c3ccc(C(C)(C)C)cc3)c2CO)cn(C)c1=O` [II-56, 4-tert-Butyl-N-{3-[5-(3-ethyl-ureido)-1-methyl-6-oxo-1,6-dihydro-pyridin-3-yl]-2-hydroxymethyl-phenyl}-benzamide], for which the values for the IC50 (in series [1] (Table II pyridinones); in the series on Ramos cells) were under 10 nM and 4 nM, respectively.
In general, melting point refers to the temperature of the solid-liquid transition. As for `COc1nccc(Nc2cc(-c3cccc(NC(=O)c4ccc(C(C)(C)C)cc4)c3C)nn(C)c2=O)n1` [Compound I-17], the melting point was in the range of 262 to 264 °C. For the same compound, 104 nM corresponded to half-maximal inhibition in series [1] (Table I pyridazinones) (IC50). Moreover, the IC50 in the series on Ramos cells came out at 415 nM.
For the compound `Cc1c(NC(=O)c2ccc(C(C)(C)C)cc2)cccc1-c1cc(Nc2ccc(C(=O)N3CCOCC3)cn2)c(=O)n(C)c1` [II-2, 4-tert-Butyl-N-(2-methyl-3-{1-methyl-5-[5-(morpholine-4-carbonyl)-pyridin-2-ylamino]-6-oxo-1,6-dihydro-pyridin-3-yl}-phenyl)-benzamide], the IC50 in the series with Ramos cells turned out to be 67 nM.
As for `CNC(=O)Nc1cc(-c2cccc(NC(=O)c3ccc(N(C)C)cc3)c2C)cn(C)c1=O` [II-13], the melting point was in the range of 291 to 292 °C. In series [1] (Table II pyridinones), this compound showed an IC50 of 96 nM. The IC50 in the series on Ramos cells worked out at 552 nM.
In the case of `Cn1cc(-c2cccc(NC(=O)c3ccc(C(C)(C)C)cc3)c2CO)cc(Nc2ccc(C(=O)N3CCOCC3)cn2)c1=O` [II-58], in the series on Ramos cells, the IC50 is 15 nM.
Turning to `Cn1nc(-c2cccc(CC(=O)NCCOC(C)(C)C)c2)cc(Nc2ccc(C(=O)N3CCOCC3)cn2)c1=O` [Compound I-32], the melting point lay within 220 to 221 °C. Also, the IC50 in series [1] (Table I pyridazinones) came out at 820 nM. The IC50 in the series with Ramos cells amounted to 32 nM.
Regarding `CCN(CC)Cc1ccc(Nc2cc(-c3cccc(NC(=O)c4ccc(C5(F)CC5)cc4)c3CO)cn(C)c2=O)nc1` [II-70, N-{3-[5-(5-Diethylaminomethyl-pyridin-2-ylamino)-1-methyl-6-oxo-1,6-dihydro-pyridin-3-yl]-2-hydroxymethyl-phenyl}-4-(1-fluoro-cyclopropyl)-benzamide], the melting point was in the range of 203 to 204 °C. Besides, the concentration for half-maximal inhibition (IC50) in series [1] (Table II pyridinones) was under 10 nM.
The matching figures for `CNC(=O)Nc1cc(-c2cccc(NC(=O)N3Cc4ccccc4C3)c2C)cn(C)c1=O` [II-17, 1,3-Dihydro-isoindole-2-carboxylic acid{2-methyl-3-[1-methyl-5-(3-methyl-ureido)-6-oxo-1,6-dihydro-pyridin-3-yl]-phenyl}-amide]: 264 to 265 °C and 666 nM.
`Cc1c(NC(=O)N2CC(OC(C)(C)C)C2)cccc1-c1cc(Nc2ccc(C(=O)N3CCOCC3)cn2)c(=O)n(C)n1` [Compound I-10, 3-tert-Butoxy-azetidine-1-carboxylic acid(2-methyl-3-{1-methyl-5-[5-(morpholine-4-carbonyl) -pyridin-2-ylamino]-6-oxo-1,6-dihydro-pyridazin-3-yl}-phenyl)-amide] registered a melting point of 171 to 172 °C. In series [1] (Table I pyridazinones), this compound had an IC50 of 228 nM.
The matching figures for `Cc1c(NC(=O)N2CCN(C(C)(C)C)CC2)cccc1-c1cc(Nc2ccc(C(=O)N3CCOCC3)cn2)c(=O)n(C)n1` [Compound I-6, 4-tert-Butyl-piperazine-1-carboxylic acid (2-methyl-3-{1-methyl-5-[5-(morpholine-4-carbonyl) -pyridin-2-ylamino]-6-oxo-1,6-dihydro-pyridazin-3-yl}-phenyl)-amide]: 166 to 169 °C and 15500 nM.
The matching figures for `Cn1nc(-c2cccc(CC(=O)N3CCCC3)c2)cc(Nc2ccc(C(=O)N3CCOCC3)cn2)c1=O` [Compound I-33]: 117 to 118 °C and 16400 nM.
Consider `Cn1nc(-c2cccc(NC(=O)c3ccc(C(C)(C)O)cc3)c2)cc(Nc2ccc(C(=O)N3CCOCC3)cn2)c1=O` [Compound I-16], for which the melting point was in the range of 172 to 173 °C. For the same compound, it took 120 nM to reach half-maximal inhibition in series [1] (Table I pyridazinones) (IC50).
On to `CNC(=O)Nc1cc(-c2cccc(NC(=O)N3Cc4ccc(F)cc4C3)c2C)cn(C)c1=O` [II-14], for which the melting point was in the range of 262 to 263 °C. In series [1] (Table II pyridinones), this compound gave a half-inhibitory concentration (IC50) of 1950 nM.
The compound `Cc1c(-c2cc(Nc3ccc(C(=O)N4CCOCC4)cn3)c(=O)n(C)n2)cccc1-n1cnc2cc(C(C)(C)C)ccc2c1=O` [Compound I-8, 7-tert-Butyl-3-(2-methyl-3-{1-methyl-5-[5-(morpholine-4-carbonyl)-pyridin-2-ylamino]-6-oxo-1,6-dihydro-pyridazin-3-yl}-phenyl)-3H-quinazolin-4-one] displayed a melting point of 188.5 to 191 °C. The compound further gave an IC50 in series [1] (Table I pyridazinones) of 116 nM. The 50% inhibitory concentration (IC50) with Ramos cells was found to be 205 nM.
